Test results: publication PMC3735840 (ACS chemical biology, 2013)

Legend:
[1] = tested on: C=C(OP(=O)(O)O)C(=O)O; assay: steady-state enzyme kinetics of the R465A EIC mutant with PEP; format: biochemical, Escherichia coli; conditions: Mg2+ active site of the C-terminal domain
[2] = molecular target: enzyme I (EI) (Escherichia coli, UniProt P08839, R465A); assay: NMR chemical shift titration; format: binding
[3] = molecular target: enzyme I (EI) (Escherichia coli, UniProt P08839); assay: NMR chemical shift titration; format: binding

enzyme I (EI) (Escherichia coli K-12; R465A)
Km [1]: 1600 ± 400 µM

O=C(O)CCC(=O)C(=O)O [αKG, α-ketoglutarate]
Kd [2]: ~6.7 mM | Kd [3]: ~2.2 mM
